Experimental data taken from patent US7811797B2, “α-isomaltosylglucosaccharide-forming enzyme, process and uses of the same” (Kabushiki Kaisha Hayashibara Seibutsu Kagaku Kenkyujo, priority 2000, dated 2010).
Like-named read-outs stand apart in the source and are kept apart here.

What was measured:
[1] = Thermostability of aqueous cyclotetrasaccharide solution; assay type: physicochemical; conditions: 10% (w/v) aqueous solution, 120° C.; for Purity (%) after heating: HPLC
Experimental: After the heating, the aqueous solution was cooled under atmospheric conditions and measured for coloration degree and determined for purity on HPLC. The coloration degree was evaluated based on the absorbance in a cell with a 1-cm light pass at a wavelength of 480 nm.

[2] = test system: Lactobacillus acidophilus JCM 1132; assay: Assimilation test, Lactobacillus acidophilus; assay type: cell-based; conditions: PYF medium with 0.5% saccharide, 37° C., four days, anaerobic
Inclusion action = assay type: physicochemical
Experimental: To 100 g of the aqueous solution was added 2 g of methanol, 3 g of ethanol, or 4.6 g acetic acid to be included by the cyclotetrasaccharide. Thereafter, each of the resulting solutions was filtered to remove non-included products, and the filtrate was dried in vacuo. As a control, similar inclusion products were prepared by using “ISOELITE™ P”, a branched cyclodextrin commercialized by Maruha K.K., Tokyo, Japan, which were known to have inclusion ability.
To measure the amount of the inclusion products in the resulting lyophilized powders, one gram of each powder was dissolved in five milliliters water and extracted after admixing with five milliliters of diethylether. The extraction was repeated, and the resulting extracts were quantified on gas chromatography.

[3] = test system: Bifidobacterium adolescentis JCM 1275; assay: Assimilation test, Bifidobacterium adolescentis; assay type: cell-based; conditions: PYF medium with 0.5% saccharide, 37° C., four days, anaerobic
[4] = Reducing power on the Somogyi-Nelson's method; assay type: physicochemical
Salivary amylase [5] = molecular target: T1, Salivary amylase (Homo sapiens, UniProt P0DUB6)
T1 sequence (P0DUB6 16-511): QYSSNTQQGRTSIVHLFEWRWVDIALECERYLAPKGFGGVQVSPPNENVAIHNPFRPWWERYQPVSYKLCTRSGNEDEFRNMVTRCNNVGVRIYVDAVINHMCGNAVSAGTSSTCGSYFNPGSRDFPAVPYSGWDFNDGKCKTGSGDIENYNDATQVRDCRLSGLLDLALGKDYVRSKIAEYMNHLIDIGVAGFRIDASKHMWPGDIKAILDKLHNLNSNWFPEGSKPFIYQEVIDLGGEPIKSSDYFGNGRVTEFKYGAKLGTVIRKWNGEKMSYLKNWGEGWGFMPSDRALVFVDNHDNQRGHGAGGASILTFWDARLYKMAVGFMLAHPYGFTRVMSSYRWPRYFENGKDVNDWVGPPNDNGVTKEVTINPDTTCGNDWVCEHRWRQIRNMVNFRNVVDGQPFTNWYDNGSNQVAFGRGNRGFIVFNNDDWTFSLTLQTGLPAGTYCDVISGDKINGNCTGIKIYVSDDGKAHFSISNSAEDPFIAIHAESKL

[6] = test system: internal content of rat cecum; assay: Fermentation test by internal content of rat cecum; assay type: in vitro ADME
Experimental: The internal content of rat cecum was collected by anesthetizing a Wister male rat with ether, allowing the rat to die, collecting the internal content under anaerobic conditions, and suspending the resultant with 4-fold volumes of a 0.1 M aqueous solution of sodium bicarbonate. Cyclotetrasaccharide was added in an amount of about 7% by weight to the internal content of rat cecum, and the contents of cyclotetrasaccharide still remained just after and 12 hours after the addition of the internal content was quantified on gas chromatography. As a result, the contents of cyclotetrasaccharide of the former and latter were respectively 68.0 mg and 63.0 mg per one gram of the internal content of rat cecum.

[7] = test system: α-isomaltosylglucosaccharide-forming enzyme; assay: Action on saccharides (substrates), Enzyme of Strain C9; assay type: biochemical, Bacillus globisporus C9; set-up: key: −: it showed no change; +: it showed a slight reduction of the color spot of the substrate and the formation of other reaction product; ++: it showed a high reduction of the color spot of the substrate and the formation of other reaction product; +++: it showed a substantial disappearance of the substrate spot and the formation of other reaction product; conditions: two units/g substrate, substrate 2% (w/v), 30° C., pH 6.0, 24 hours, TLC
In short: (§1)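 Purified enzyme from each strain was added at 2 units/g substrate to each of 24 saccharides at 2% (w/v). Incubation ran 24 h at 30° C, pH 6.0, or pH 8.4 for the A19 enzyme. TLC compared reaction mixtures before and after incubation to show whether each substrate was acted on.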

[8] = test system: Small intestinal mucosal enzyme; assay: Digestion test in vitro, small intestinal mucosal enzyme
Salivary amylase [9] = molecular target: T1, Salivary amylase; assay: Digestion test in vitro, salivary amylase
[10] = test system: α-isomaltosylglucosaccharide-forming enzyme; assay: Action on saccharides (substrates), Enzyme of Strain A19; assay type: biochemical, Arthrobacter globiformis A19; set-up: key: −: it showed no change; +: it showed a slight reduction of the color spot of the substrate and the formation of other reaction product; ++: it showed a high reduction of the color spot of the substrate and the formation of other reaction product; +++: it showed a substantial disappearance of the substrate spot and the formation of other reaction product; conditions: two units/g substrate, substrate 2% (w/v), 30° C., pH 8.4, 24 hours, TLC
In short: as §1

[11] = test system: α-isomaltosylglucosaccharide-forming enzyme; assay: Action on saccharides (substrates), Enzyme of Strain N75; assay type: biochemical, Bacillus globisporus N75; set-up: key: −: it showed no change; +: it showed a slight reduction of the color spot of the substrate and the formation of other reaction product; ++: it showed a high reduction of the color spot of the substrate and the formation of other reaction product; +++: it showed a substantial disappearance of the substrate spot and the formation of other reaction product; conditions: two units/g substrate, substrate 2% (w/v), 30° C., pH 6.0, 24 hours, TLC
In short: as §1

OCC1OC2OCC3O[C@H](O[C@H]4C(O)C(CO)OC(OCC5O[C@H](O[C@@H](C1O)C2O)C(O)C(O)[C@@H]5O)C4O)C(O)C(O)[C@@H]3O (stereo partly drawn) [Cyclotetrasaccharide, cyclo{→6)-α-D-glucopyranosyl-(1→3)-α-D-glucopyranosyl-(1→6)-α-D-glucopyranosyl-(1→3)-α-D-glucopyransoyl-(1→}]
Coloration degree (A480 nm) ([1]; heating time 0 min): 0.00 A480 nm | Purity (%) after heating ([1]; heating time 0 min): 100% | Coloration degree (A480 nm) ([1]; heating time 30 min): 0.00 A480 nm | Purity (%) after heating ([1]; heating time 30 min): 100% | Coloration degree (A480 nm) ([1]; heating time 60 min): 0.00 A480 nm | Purity (%) after heating ([1]; heating time 60 min): 100% | Coloration degree (A480 nm) ([1]; heating time 90 min): 0.00 A480 nm | Purity (%) after heating ([1]; heating time 90 min): 100% | Assimilability [2]: − (judged negative (−) when the post culture had a pH of 6.0 or higher) | inclusion ability relative to that of the branched cyclodextrin (Inclusion action; by weight): about 2 folds | Inclusion amount (mg/g lyophilized powder) (Inclusion action; inclusion product Acetic acid): 67.74 mg/g lyophilized powder | Inclusion amount (mg/g lyophilized powder) (Inclusion action; inclusion product Ethanol): 17.26 mg/g lyophilized powder | Inclusion amount (mg/g lyophilized powder) (Inclusion action; inclusion product Methanol): 6.71 mg/g lyophilized powder | Assimilability [3]: − (judged negative (−) when the post culture had a pH of 6.0 or higher) | reducing power [4]: below a detectable level | Decomposition percentage (%) by digestive enzyme (Salivary amylase [5]): 0.0% | content of cyclotetrasaccharide remained ([6]; 12 hours after the addition): 63.0 mg per one gram of the internal content of rat cecum | content of cyclotetrasaccharide remained ([6]; just after the addition, about 7% by weight added): 68.0 mg per one gram of the internal content of rat cecum

OC[C@@H](O)[C@@H](O[C@H]1O[C@H](CO)[C@@H](O)[C@H](O)[C@H]1O)[C@H](O)[C@@H](O)CO [Maltitol, reference compound]
Enzymatic action, Enzyme of Strain C9 [7]: − | Decomposition percentage (%) by digestive enzyme [8]: 4.0% | Decomposition percentage (%) by digestive enzyme (Salivary amylase [9]): 0.0% | Enzymatic action, Enzyme of Strain A19 [10]: − | Enzymatic action, Enzyme of Strain N75 [11]: −
